Source: US20250041624A1, “METHOD FOR ENHANCING ACTIVITY OF PHOTOSENSITIZER BY MAGNETIC FIELD” (PEKING UNIVERSITY, priority 2021, published 2025)
“And” between values parts separate entries of the source, which are not always exact repeats. Equal values may be shown once. Read-outs that look alike come from different tables or passages of the source.

Tested on: HeLa cells
Assay: CCK-8 cell viability of HeLa cells under light and magnetic field
Type: cell-based
Settings: for CV(%) (cell viability): final concentration of photosensitizer 30 mol/L (so in the source), light 10 min; for mfe(CV)(%) =(CV0−CVB)/CV0×100%: photosensitizer 30 mol/L (so in the source); for IC50: white light 400-700 nm 5 mW·cm−2, 10 min, read-out: RB Half inhibitory concentration
Experimental: (1) Appropriate amounts of HeLa cells are added to DMEM medium (Corning, USA, high glycoform, with glucose concentration […] 4.5 g/L), and then appropriate amounts of 10 wt % fetal bovine serum (FBS), 1 wt % penicillin and streptomycin are added. Cells are cultured at 37° C. in humidified air with 5% (volume fraction) CO2 for 2 days.
The above Hela cells (2×10^3/well) are seeded in 96-well plates for 24 h without light. 100 μL medium and 100 μL aqueous solution of RB with concentrations of 80, 40, 20, 10, 5 μmol/L or 100 μL 0.01 mol/L PBS buffer (phosphate buffered saline) are added respectively, and treated for 24 h, thereafter the cells are washed 3 times with PBS buffer.
DMEM (comprising FBS) medium is added to the 96-well plates for 24 hours in the absence of light. An additional 10 μL of Cell Counting Kit-8 (CCK-8 kit) (Beyotime Biotechnology Co. Ltd.) and 90 μL of DMEM are added to each well, and the light and magnetic field strength are controlled for a subsequent incubation of 30 minutes. The absorbance at 450 nm is read using a microplate reader. Cell Viability (CV) of Hela cells is calculated using the following equation: […]
Where As is the absorbance of HeLa cells comprising photosensitizer (PS), Ac is the absorbance of Hela cells without PS and Ab is the absorbance of those without PS and HeLa cells.
The change rate of half inhibitory concentration, mfeP (Cell Viability (%)) is obtained as follows: mfeP=(IC50,0−IC50,B)/IC50,B×100%, where IC50,0 is half inhibitory concentration at magnetic field strength of 0 mT and IC50,B is half inhibitory concentration at magnetic field strength of B.
Under white light with lighting conditions of 400-700 nm, the power of 5 mW·cm^−2, test is carried out in a magnetic field with strengths of 0-800 mT, and the irradiation and the magnetic field perform for 10 min. The results of the test calculations for mfeP (Cell Viability (%)) at different concentrations of RB and each magnetic field strength are shown in FIG. 8. The RB half inhibitory concentration μmol/L at magnetic field strength of B calculated by logistic regression model fitting according to FIG. 8 are shown in Table 2 below.
In above experiment, with final concentration of photosensitizer of 30 mol/L, CV (%) and mfe (CV) (%) measured and calculated at each magnetic field strength are specifically shown in Table 3, where mfe(CV)=(CV0−CVB)/CV0×100%.

O=C1OC2(c3cc(I)c(O)c(I)c3Oc3c2cc(I)c(O)c3I)c2c(Cl)c(Cl)c(Cl)c(Cl)c21 [RB, Rose Bengal]
mfeP (Cell Viability(%), change rate of half inhibitory concentration) (MF 14 mT vs 0 mT): −21% and −21.5% | mfeP (Cell Viability(%), change rate of half inhibitory concentration) (MF 40 mT vs 0 mT): 8.1% | mfeP (Cell Viability(%), change rate of half inhibitory concentration) (MF 90 mT vs 0 mT): 13.3% | mfeP (Cell Viability(%), change rate of half inhibitory concentration) (MF 150 mT vs 0 mT): 14.8% | mfeP (Cell Viability(%), change rate of half inhibitory concentration) (MF 250 mT vs 0 mT): 22.4% | mfeP (Cell Viability(%), change rate of half inhibitory concentration) (MF 575 mT vs 0 mT): 22.1% | mfeP (Cell Viability(%), change rate of half inhibitory concentration) (MF 700 mT vs 0 mT): −11.1% | mfeP (Cell Viability(%), change rate of half inhibitory concentration) (MF 800 mT vs 0 mT): −58% | CV(%) (cell viability) (MF 0 mT): 71.1 ± 0.5% | CV(%) (cell viability) (MF 14 mT): 89.8 ± 4.2% | CV(%) (cell viability) (MF 150 mT): 72.5 ± 3.2% | CV(%) (cell viability) (MF 250 mT): 59.9 ± 2.6% | CV(%) (cell viability) (MF 400 mT): 42.3 ± 6.7% | CV(%) (cell viability) (MF 575 mT): 74.1 ± 0.6% | CV(%) (cell viability) (MF 700 mT): 78.3 ± 3.2% | CV(%) (cell viability) (MF 800 mT): 83.0 ± 0.5% | mfe(CV)(%) =(CV0−CVB)/CV0×100% (MF 0 mT): 0% | mfe(CV)(%) =(CV0−CVB)/CV0×100% (MF 14 mT): −26.3% | mfe(CV)(%) =(CV0−CVB)/CV0×100% (MF 150 mT): −1.97% | mfe(CV)(%) =(CV0−CVB)/CV0×100% (MF 250 mT): 15.8% | mfe(CV)(%) =(CV0−CVB)/CV0×100% (MF 400 mT): 40.5% | mfe(CV)(%) =(CV0−CVB)/CV0×100% (MF 575 mT): −4.2% | mfe(CV)(%) =(CV0−CVB)/CV0×100% (MF 700 mT): −10.13% | mfe(CV)(%) =(CV0−CVB)/CV0×100% (MF 800 mT): −16.7% | IC50 (MF 0 mT): 34.2 ± 1.7 µM | IC50 (MF 14 mT): 41.6 ± 1.4 µM | IC50 (MF 40 mT): 31.5 ± 1 µM | IC50 (MF 90 mT): 29.7 ± 0.7 µM | IC50 (MF 150 mT): 29.2 ± 0.6 µM | IC50 (MF 250 mT): 26.6 ± 0.3 µM | IC50 (MF 400 mT): 26.1 ± 0.8 µM | IC50 (MF 575 mT): 26.7 ± 1.9 µM | IC50 (MF 700 mT): 38 ± 1.1 µM | IC50 (MF 800 mT): 54.1 ± 0.8 µM
